Tested on: milkweed bug, Oncopeltus fasciatus (Dallas)
Assay: anti-juvenile hormone activity and insecticidal activity against the milkweed bug (treated filter paper, second-instar nymphs)
Assay type: in vivo
Conditions: for LD50 (ED50 or LD50; compounds without asterisk, functioned as insecticides): insecticidal activity, mortality to at least 50% of the insects; for LD50 (ED50 or LD50; compounds without asterisk, functioned as insecticides) / ED50 (ED50 or LD50; compounds marked with asterisk, functioned as anti-juvenile hormone): second-instar nymphs, treated filter paper, 70° F, 3 to 4 weeks; for type of action (anti-juvenile hormone or general insecticide): statement in words on Table II; for ED50 (ED50 or LD50; compounds marked with asterisk, functioned as anti-juvenile hormone): anti-juvenile hormone activity (asterisk)
Description: Compounds were tested for anti-juvenile hormone activity and insecticidal activity against the milkweed bug, Oncopeltus fasciatus (Dallas) as follows: The test compounds were diluted in acetone and impregnated into a filter paper disc by applying 0.6 milliliters and permitting the solvent to completely evaporate. Ten second-instar nymphs of Oncopeltus fasciatus (Dallas) were placed in a petri dish with the treated filter paper. The nymphs were supplied with milkweed seeds and water (by soaking dental cotton in a 4-dram vial cap). All petri dishes were stored at 70° F. The compounds were tested at concentrations ranging from 10 μg/cm^2 of filter paper downwards. The insecticidal or anti-juvenile hormone effect was determined when control insects had developed into normal adults, normally 3 to 4 weeks. The asterisk in the Table signifies that the indicated compound functioned as an anti-juvenilehormone. Compounds not marked with an asterisk functioned as insecticides,resulting in mortality to at least 50% of the insects at the indicated level.

Row | Structure (SMILES) | LD50 (ED50 or LD50; compounds without asterisk, functioned as insecticides) | type of action (anti-juvenile hormone or general insecticide) | ED50 (ED50 or LD50; compounds marked with asterisk, functioned as anti-juvenile hormone)
1 | C#CCOc1ccc2c(c1)OC(C)(C)C=C2 [Compound 1] | 2 ug/cm^2 | function as general insecticides | –
2 | CC#CCOc1ccc2c(c1)OC(C)(C)C=C2 [Compound 2] | – | function as anti-juvenile hormones | 0.5 ug/cm^2
3 | C=CCOc1ccc2c(c1)OC(C)(C)C=C2 [Compound 3, 2,2-dimethyl-7-allyloxy-3-chromene] | – | function as anti-juvenile hormones | 2 ug/cm^2
4 | C#CCOc1cc2c(cc1OC)OC(C)(C)C=C2 [Compound 4] | 6 ug/cm^2 | function as general insecticides | –
5 | C=CCOc1cc2c(cc1OC)OC(C)(C)C=C2 [Compound 5] | 8 ug/cm^2 | function as general insecticides | –
6 | C#CCOc1cc2c(cc1OC)C=CC(C)(C)O2 [Compound 6] | – | function as anti-juvenile hormones | 1 ug/cm^2
7 | C=CCOc1cc2c(cc1OC)C=CC(C)(C)O2 [Compound 7] | – | function as anti-juvenile hormones | 0.5 ug/cm^2

Source: US4162326A, “Insect control agents” (Stauffer Chemical Company, priority 1978, dated 1979)
